{
  "source": "patent US11730686B2",
  "about": "“Cosmetic skincare compositions” (THE BOOTS COMPANY PLC, priority 2017, dated 2023)",
  "system": "Interleukin-6 (IL-6)",
  "experiment": "Interleukin-6 (IL-6) assay: UV-stressed skin cells, IL-6 ELISA of media supernatant",
  "format": "cell-based",
  "conditions": "FIG. 2; active alone at 0.0001% by weight of the composition; skin cells (keratinocytes or fibroblasts), UV dose 61,500 Joules/m^2",
  "description": "Interleukin-6 (IL-6) Assay Interleukin-6 (IL-6) bioactivity in skin cells was measured. IL-6 is a cytokine and used as a biomarker for inflammation. Skin cells (keratinocytes or fibroblasts) were placed under UV stress to induce an IL-6 response in the presence of an active or blend of actives to determine the activity of that active or blend of actives in inhibiting an IL-6 response. Skin cells (keratinocytes or fibroblasts) were taken from culture, seeded in a 96-well plate at a density of 5000 cells per well in cell growth media with supplements and left to incubate for 24 hours at 37° C. Determination of cell number for the purpose of plating was performed in accordance with standard methods known in the art. After incubation, the cell growth media was replaced with 100 μl of PBS without calcium and magnesium and containing the relevant concentration of active(s) required. Controls include untreated irradiated and non-irradiated samples which require 100 μl pure PBS without calcium and magnesium or containing a maximum of 0.1%. Dimethyl sulfoxide (DMSO) was used where necessary to dissolve the active(s). Salicylic acid is the positive control for this assay. The cells were incubated with the actives for 30 minutes at 37° C. before being irradiated with a UV dose of 61,500 Joules/m^2. […]",
  "data": [
    {"smiles": "CCCCCCCCCCCCCC[C@@H](O)[C@@H](O)[C@@H](N)CO.Cl", "note": "[phytosphingosine hydrochloride]", "values": [
      {"measurement": "inhibited IL-6 activity", "result": 58, "unit": "%"}
    ]}
  ]
}
